Experimental findings from PubChem BioAssay AID1996 are described below.

≈ marks a conversion by molar mass, not a printed value. Where only a bound is given, the exact number is not on record here.

The conditions of the series: buffer; pH 7.4; 200.0 µM.
On to `Cc1sc2ncnc(NS(=O)(=O)c3ccc(Cl)cc3)c2c1C`, for which the kinetic solubility was 47.8 µg/mL (≈ 135 µM). In the case of `CC(=O)c1cccc(NC(=O)COC(=O)CCC(=O)c2ccc(F)cc2)c1`, the solubility (kinetic) was 53.9 µg/mL (≈ 145 µM). As to `CCCN1CCC(NC2CCC(O)CC2)CC1` (stereo not given), the kinetic solubility was found to be 27.1 µg/mL (≈ 113 µM). On to `CCC(=O)c1ccc(OCC(=O)OCC(=O)NC2CCCCCCC2)cc1`, for which the solubility (kinetic) was determined as 48 µg/mL (≈ 128 µM). Compound `C=CCN1C(=O)C2(OCCCO2)c2cc(C)ccc21` showed a solubility (kinetic) of 19.4 µg/mL (≈ 74.8 µM). The same measure for `O=C(Nc1ccon1)Nc1ccccc1C(F)(F)F`: greater than 40.7 µg/mL; for `CC(=O)c1cc(C)ccc1OC(=O)CN1C(=O)c2ccccc2C1=O`: 24.6 µg/mL (≈ 72.9 µM); for `Cc1ccc(CNC(=O)C2CCCN2C(=O)Nc2ccc(C)cc2)cc1` (stereo not given): 11.4 µg/mL (≈ 32.4 µM).

In turn, `O=C1NC2(CCCCCC2)N=C1c1ccc(Br)cc1` showed a solubility (kinetic) of 0.9 µg/mL (≈ 2.8 µM). With `Cc1cccc(C)c1N1CCN(C(=O)N2CCOCC2)CC1` the figure was greater than 45.5 µg/mL; with `CCOC(=O)c1ccc(NC(=S)Nc2cccc(N)n2)cc1`, 2.3 µg/mL (≈ 7.27 µM). Turning to `O=c1[nH]c(=S)n(C2CC2)c(O)c1C=NCC1CCCO1` (stereo not given), the solubility (kinetic) was greater than 44.3 µg/mL. With `O=C(CNS(=O)(=O)c1cccc(C(F)(F)F)c1)NC1CCCCCC1` the figure was 48.7 µg/mL (≈ 129 µM); with `O=C(O)c1ccc(/C=N/n2cc(-c3ccccc3)[nH]c2=S)cc1`, greater than 48.5 µg/mL. For the compound `CC(C)c1ccccc1NS(=O)(=O)c1cccs1`, the solubility (kinetic) is 28.2 µg/mL (≈ 100 µM). The same measure for `N/C(=N\OC(=O)c1ccc(Cl)c([N+](=O)[O-])c1)c1ccccc1`: 7.9 µg/mL (≈ 24.7 µM); for `CCOC(=O)C1CCCN1C(=O)c1ccc(OC)c(Br)c1` (stereo not given): greater than 53.4 µg/mL. Take `O=C(CNC(=O)c1ccc(Cl)cc1)OCN1C(=O)c2ccccc2C1=O`: the kinetic solubility was 7.7 µg/mL (≈ 20.7 µM). `CC(C)Sc1nc(SCC(=O)O)c2c3c(sc2n1)COC(C)(C)C3` showed a kinetic solubility of 56.9 µg/mL (≈ 148 µM).

`Cc1ccc(-c2c[n+](CC(=O)Nc3ccccc3)c3n2CCC3)cc1.[Cl-]` came in with a solubility (kinetic) greater than 55.2 µg/mL. As for `O=[N+]([O-])c1ccc(Sc2ccccn2)nc1`, the kinetic solubility is 34.9 µg/mL (≈ 150 µM). Take `O=c1c2ccccc2ncn1Cc1ccccc1`: the kinetic solubility stood at 31.5 µg/mL (≈ 133 µM). With `CCN(c1ccccc1)S(=O)(=O)c1ccc(OC)c(NC(=O)c2ccc(=O)[nH]c2)c1` the figure was 24.2 µg/mL (≈ 56.6 µM). With `CC(=O)c1sc(=S)n(-c2ccccc2)c1C`, the solubility (kinetic) was 9.4 µg/mL (≈ 37.7 µM). With `CCN1C(=O)Cc2cc(S(=O)(=O)NCCc3ccccc3)ccc21`, the kinetic solubility was 32.9 µg/mL (≈ 95.5 µM). With `Cc1c(C(=O)OCC(=O)N2CCN(c3ccccc3)CC2)oc2ccccc12` the figure was 4.5 µg/mL (≈ 11.9 µM); with `Cc1ccc(C(=O)N2CCc3ccccc32)cc1[N+](=O)[O-]`, less than 0.3 µg/mL; with `CC1=C(C(=O)NCc2ccc(Cl)cc2)C2(CCC(C)CC2)OC1=O` (stereo not given), 4.3 µg/mL (≈ 12.4 µM). Compound `N#Cc1cc2cc3c(cc2nc1SCC(=O)N1CCOCC1)OCO3` came in with a solubility (kinetic) of 4.9 µg/mL (≈ 13.7 µM). On to `COc1ccc(Nc2nc(-c3ccncc3)nc3ccccc23)cc1`, for which the solubility (kinetic) was determined as 0.6 µg/mL (≈ 1.83 µM). The same measure for `Cc1ccc(CN(Cc2ccco2)C(=S)Nc2ccccc2C)cc1`: 0.4 µg/mL (≈ 1.14 µM); for `CCC(OC(=O)c1nsc(Cl)c1Cl)C(=O)NC(C)(C)CC` (stereo not given): greater than 53 µg/mL. As to `Cc1cc(C(=O)OCC(=O)NC2CCC(C)CC2)c(C)o1` (stereo not given), the solubility (kinetic) was determined as 11.6 µg/mL (≈ 39.5 µM). Compound `COc1ccc(-c2cc(C(=O)NCc3ccco3)c3ccccc3n2)cc1OC` registered a solubility (kinetic) of 1.7 µg/mL (≈ 4.38 µM). With `O=[N+]([O-])c1cccc(CN2CCCCCC2)c1` the figure was 31.7 µg/mL (≈ 135 µM); with `O=C(Oc1cc(Cl)cc(Cl)c1)c1cnc2n(c1=O)CCS2`, 43.9 µg/mL (≈ 128 µM). Consider `CSCCC(=O)N1CCCC(N(C)CCc2ccccc2)C1` (stereo not given), for which the kinetic solubility worked out at 41.7 µg/mL (≈ 130 µM).

For `O=C(OCC(=O)N1CCN(C(=O)c2ccco2)CC1)c1c(Cl)cccc1Cl`, the solubility (kinetic) is greater than 61.7 µg/mL.

`CN(CC(=O)NC1CC1)S(=O)(=O)c1ccc(F)cc1` returned a kinetic solubility greater than 42.9 µg/mL. With `CCOC(=O)C1=C(C)Nc2ccccc2N=C1NC(=O)C1CCN(C(=O)c2ccccc2C)CC1` the figure was 35.3 µg/mL (≈ 74.4 µM).

One may read the solubility (kinetic) as the concentration staying in solution when a stock, usually in DMSO, is diluted into the medium.
